From PubChem BioAssay (NCI)
Values joined by “and” are separate entries in the source; they are usually repeats but may differ in a detail not shown here. Equal values may be shown once.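 Five compound concentrations were applied to cells in 96-well plates for 48 hours; endpoints were derived by simple linear interpolation of the resulting dose-response curve. GI50 marks 50% less growth. TGI denotes the concentration required for complete inhibition of growth.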

Assays:
Assay in all cases: DTP human tumour cell line panel, 48 h
[1] = tested on: CAKI-1 renal
[2] = tested on: CCRF-CEM leukemia
[3] = tested on: COLO 205 colon
[4] = tested on: HCT-116 colon
[5] = tested on: HOP-62 NSCLC
[6] = tested on: NCI-H226 lung
[7] = tested on: NCI-H522 lung
[8] = tested on: SF-539 CNS
[9] = tested on: SNB-75 CNS
[10] = tested on: TK-10 renal

Row | Structure (SMILES) | GI50 [1] | TGI [1] | GI50 [2] | TGI [2] | GI50 [3] | TGI [3] | GI50 [4] | TGI [4] | GI50 [5] | TGI [5] | GI50 [6] | TGI [6] | GI50 [7] | TGI [7] | GI50 [8] | TGI [8] | GI50 [9] | TGI [9] | GI50 [10] | TGI [10]
1 | CNC(=O)c1cc(Oc2ccc(NC(=O)Nc3cc(C(C)(C)C)nn3-c3ccc4ncccc4c3)c(F)c2)ccn1 | 0.523 µM and 0.699 µM | 4.65 µM and 4.32 µM | 2.35 µM and 2.57 µM | 8.36 µM and > 31.6 µM | 0.459 µM and 0.62 µM | 1.85 µM and 2.2 µM | 1.41 µM and 1.37 µM | 7.28 µM and 5.94 µM | 2.24 µM and 2.2 µM | 7.56 µM and 7.34 µM | 0.272 µM and 0.822 µM | 7.24 µM and 4.26 µM | 1.78 µM and 2.2 µM | 4.91 µM and 5.31 µM | 2 µM and 1.71 µM | 4.62 µM and 3.66 µM | 1.09 µM and 1.01 µM | 2.7 µM and 3.01 µM | 1.83 µM and 1.7 µM | 6.79 µM and 6.93 µM
2 | CC(=O)c1c(C)c2cnc(Nc3ccc(N4CCNCC4)cn3)nc2n(C2CCCC2)c1=O | 1.61 µM | 17.2 µM | 0.707 µM | > 50.6 µM | 1.33 µM | 17.6 µM | 3.07 µM | 16.3 µM | 12.8 µM | 26.2 µM | 6.07 µM | 22.4 µM | 13 µM | 27.4 µM | 14.1 µM | 28.3 µM | 10.7 µM | 23.4 µM | 0.533 µM | 16.3 µM
3 | Cc1cc(N2CCOCC2)nc(NCc2cc(Nc3ccnc4cc(Cl)ccc34)ccc2F)n1 | 1.63 µM | 3.14 µM | 1.46 µM | 4.79 µM | 0.665 µM | 2.15 µM | 1.51 µM | 3.08 µM | 1.51 µM | 2.96 µM | 2.06 µM | 4.31 µM | 1.95 µM | 3.85 µM | 1.79 µM | 3.28 µM | 1.19 µM | 2.64 µM | 1.84 µM | 3.4 µM
4 | FC(F)(F)c1cccc(-c2[nH]ncc2-c2nnnn2-c2ccccc2)c1 | 5.36 µM | 27.7 µM | 5.3 µM | 22.9 µM | 3.49 µM | 13 µM | 4.7 µM | 19.4 µM | 7.88 µM | 23.4 µM | 13.2 µM | 31.1 µM | 4.58 µM | 19 µM | 6.79 µM | 21 µM | 4.81 µM | 20.1 µM | 6.6 µM | 20 µM
5 | C=C(C)C(=O)Nc1ccc(-c2c(-c3ccc(Oc4nccc(C)n4)c(F)c3)c3c(N)ncnc3n2C)cc1 | 1.92 µM | 8.23 µM | 5.25 µM | > 100 µM | 3.79 µM | 13.8 µM | 5.05 µM | 19.8 µM | 4.69 µM | 20 µM | 0.812 µM | 7.46 µM | 3.57 µM | 16.1 µM | 1.88 µM | 8.89 µM | 1.18 µM | 7.32 µM | 4.98 µM | 30 µM
6 | COc1cc(-c2ccc[nH]2)[nH]c1/C=C1\N=C(C)C(CC(=O)OCC(C)(C)C)=C1C | 0.263 µM | 1.13 µM | 0.0625 µM | 2.12 µM | 0.206 µM | 1.22 µM | 0.181 µM | 1.15 µM | 0.218 µM | 1.38 µM | 0.176 µM | 0.736 µM | 0.23 µM | 1.51 µM | 0.357 µM | 1.6 µM | 0.228 µM | 0.903 µM | 0.326 µM | 1.19 µM
7 | COC(=O)c1cc(-c2ccc(S(C)(=O)=O)cc2)[nH]c1N/N=C/c1c(Cl)cccc1Cl | 0.377 µM | 13.9 µM | 0.759 µM | – | 0.491 µM | 4.72 µM | 0.454 µM | > 47.9 µM | 0.787 µM | 32.9 µM | 1.02 µM | > 22.9 µM | 0.988 µM | – | 0.496 µM | 4.79 µM | 0.298 µM | 1.93 µM | 0.988 µM | 38.3 µM
8 | CCN(CC)c1c(C)nnn1C1OC(COC(C)=O)C(OC(C)=O)C(OC(C)=O)C1OC(C)=O (stereo unspecified) | – | > 100 µM | – | > 100 µM | – | > 100 µM | – | > 100 µM | – | > 100 µM | – | > 100 µM | – | > 100 µM | – | > 100 µM | – | > 100 µM | – | > 100 µM
9 | CCN1C(=O)N(CC)C2C1N=C(SC)N2/N=C/C=C/c1ccccc1OC (stereo unspecified) | 0.572 µM | > 58.3 µM | 0.379 µM | > 48.2 µM | 0.324 µM | – | 0.375 µM | 24.8 µM | 0.55 µM | > 45 µM | 2.14 µM | > 52.3 µM | 0.308 µM | – | 0.315 µM | 1.69 µM | 0.363 µM | 52.5 µM | 1.09 µM | > 58.7 µM
10 | Cc1c(C(N)=O)sc2nc(C)n(/N=c3\scc(-c4ccccc4)n3Cc3ccccc3)c(=O)c12 | 3.35 µM | > 100 µM | 34.2 µM | > 100 µM | 2.39 µM | 7.32 µM | 2.13 µM | 10.3 µM | 2.82 µM | 9.47 µM | 3.72 µM | 67.9 µM | 1.73 µM | 7.23 µM | 4.02 µM | > 100 µM | 2.8 µM | > 100 µM | 3.78 µM | > 100 µM
11 | CCC(=O)Nc1nnc(Cc2ccc(OC)c(OC)c2)s1 | > 100 µM | > 100 µM | > 100 µM | > 100 µM | > 100 µM | > 100 µM | > 100 µM | > 100 µM | > 100 µM | > 100 µM | > 100 µM | > 100 µM | > 100 µM | > 100 µM | > 100 µM | > 100 µM | 44.2 µM | > 100 µM | > 100 µM | > 100 µM
12 | CNc1cc(-c2cccc(OC(F)(F)F)c2)nc2ccc(N3CCCC3)cc12 | 1.57 µM and 1.53 µM and 1.6 µM | 2.91 µM and 2.88 µM and 2.97 µM | 2.02 µM and 1.96 µM and 1.76 µM | 4.52 µM and 4.49 µM and 4.01 µM | 1.84 µM and 1.81 µM | 3.58 µM and 3.29 µM | 1.3 µM and 1.79 µM and 1.21 µM | 2.58 µM and 3.32 µM and 2.52 µM | 1.62 µM and 1.69 µM and 1.72 µM | 3.11 µM and 3.16 µM | 2.49 µM and 1.88 µM | 4.58 µM and 3.77 µM | 1.68 µM and 1.65 µM and 1.76 µM | 3.33 µM and 3.25 µM and 3.43 µM | 1.72 µM and 1.88 µM and 1.78 µM | 3.19 µM and 3.45 µM and 3.22 µM | 1.7 µM and 1.48 µM | 3.12 µM and 2.93 µM | 1.94 µM and 1.78 µM and 1.8 µM | 3.39 µM and 3.2 µM and 3.24 µM
13 | CCCCOC(=O)NC(=O)c1cn(CCCOC(=O)CCCCCCCCC(=O)OCCCn2cc(C(=O)NC(=O)OCCCC)c(=O)n(C)c2=O)c(=O)n(C)c1=O | – | > 100 µM | – | > 100 µM | – | > 100 µM | – | > 100 µM | – | > 100 µM | – | > 100 µM | – | > 100 µM | – | > 100 µM | – | > 100 µM | – | > 100 µM
14 | C=CCSC(C)=O | – | > 100 µM | – | > 100 µM | – | > 100 µM | – | > 100 µM | – | > 100 µM | – | > 100 µM | – | > 100 µM | – | > 100 µM | – | > 100 µM | – | > 100 µM
15 | CSc1nc(SC)c2c(C)cn(COCCOC(=O)c3ccccc3)c2n1 | – | > 100 µM | – | > 100 µM | – | > 100 µM | – | > 100 µM | – | > 100 µM | – | > 100 µM | – | > 100 µM | – | > 100 µM | – | > 100 µM | – | > 100 µM
16 | COc1cc(C2NC(=O)C(C#N)=C(Nc3cccc(C)c3)S2)ccc1O (stereo unspecified) | > 100 µM | > 100 µM | > 100 µM | > 100 µM | > 100 µM | > 100 µM | > 100 µM | > 100 µM | > 100 µM | > 100 µM | > 100 µM | > 100 µM | > 100 µM | > 100 µM | > 100 µM | > 100 µM | > 100 µM | > 100 µM | > 100 µM | > 100 µM
17 | COc1cc(C(=O)n2nc(N)c3c(C)cc(C)nc32)cc(OC)c1OC | > 100 µM | > 100 µM | > 89.2 µM | > 100 µM | > 40.9 µM | > 100 µM | 42 µM | > 100 µM | 40.8 µM | > 100 µM | > 100 µM | > 100 µM | 10.8 µM | > 100 µM | > 23.4 µM | > 100 µM | > 38.3 µM | > 100 µM | > 100 µM | > 100 µM
